Measurements as given in US10570168B2, “2′ and/or 5′ amino-acid ester phosphoramidate 3′-deoxy adenosine derivatives as anti- cancer compounds” (NuCana plc, priority 2014, dated 2020).

Test system: leukaemic stem cell (LSC) compartment within the KG1a cell line
Test: Immunophenotypic identification of the leukaemic stem cell compartment
Assay type: cell-based
Conditions: 72 h
Protocol: KG1a cells were cultured for 72 h in the presence of a wide range of concentrations of each compound assayed. Cells were then harvested and labelled with a cocktail of anti-lineage antibodies (PE-cy7), anti-CD34 (FITC), anti-CD38 (PE) and anti-CD123 (PERCP cy5). The sub-population expressing a LSC phenotype were subsequently identified and were expressed as a percentage of all viable cells left in the culture. The percentages of stem cells remaining were then plotted on a dose-response graph and the effects of the compounds were compared with each other, and with the parent nucleoside.
The data obtained in these experiments were evaluated using one way ANOVA. All data was confirmed as Gaussian or a Gaussian approximation using the omnibus K2 test. LD50 values were calculated from the non-linear regression and line of best-fit analysis of the sigmoidal dose-response curves. All statistical analyses were performed using Graphpad Prism 6.0 software (Graphpad Software Inc., San Diego, Calif.).

With C[C@H](NP(=O)(OC[C@@H]1CC(O)[C@H](n2cnc3c(N)ncnc32)O1)Oc1ccccc1)C(=O)OCc1ccccc1 (stereo partly drawn) [Compound A, 3′-deoxyadenosine-5′-O-[phenyl(benzyloxy-L-alaninyl)] phosphate] the “reduction of LSCs as a proportion of the cancer cells in culture (ability to target LSCs)” value (Lin−/CD34+/CD38−/CD123+) was “preferentially target cancer stem cells” and the “LSC targeting compared with the parent nucleoside” value (for compound A at 1 mM and above) was “significantly greater than that of the parent compound”.
